Source: patent US20240252670A1, “ANTIBODY DRUG CONJUGATE, PREPARATION METHOD THEREFOR AND APPLICATION THEREOF” (TSINGHUA UNIVERSITY, priority 2021, published 2024)

How the values were obtained:
[1] = system: B16 cells; assay: Internalization of pHrodo red labeled anti-PD-L1 THIOMAB in cancer cells (IncuCyte); assay type: cell-based, mouse; settings: 24 h, pHrodo red labeled antibody, control 98.53
Protocol: (§1) After MC38 and B16 cells were treated for 24 hours with anti-PD-L1 THIOMAB labeled with pHrodo™ red dye, A. high-definition phase images, red fluorescence images and combined images of cells were collected by using an IncuCyte® viable cell system; B. a total red object integrated intensity histogram was obtained by analysis using IncuCyte® software, wherein the logarithm of 10 was taken for the ordinate data. Student's t test was used to compare significant differences between the groups, and p<0.0001 is represented by ****.
(§2) The pHrodo™ red dye is known to be a pH sensitive fluorescent dye, which rapidly increases in molecular fluorescence intensity when the surrounding environment becomes acidic (Lehrman et al., 2018). When the dye was internalized into the cells along with the antigen-antibody complex, the pH of the environment around the dye was reduced to acidity, thereby producing an observable fluorescence signal. This property allowed the internalization process of the antibody to be monitored by using the pHrodo™ red dye. Through the IncuCyte® viable cell analysis system, the inventors could perform image-based monitoring and quantitative analysis on the internalization process of the anti-PD-L1 antibody labeled with the pHrodo™ red dye. […]

[2] = system: MC38 cells; assay: as above; assay type: cell-based, mouse; settings: 24 h, pHrodo red labeled antibody, control 84.88
Protocol: as §1, §2

[3] = system: PD-L1 negative Cd274 knockout DC 2.4 cells; assay: Preliminary internalization experiment in DC cells (FACS, 10% FBS); assay type: cell-based, mouse; settings: Cd274 knockout DC 2.4, 10% FBS, incubation 8 h, pHrodo red labeled antibody
Protocol: (§3) PD-L1 positive wild-type DC 2.4 cells and PD-L1 negative Cd274 knockout DC 2.4 cells were cultured in a 10% FBS culture medium, anti-PD-L1 THIOMAB labeled with pHrodo™ red dye was added after the cell state was stable, and the cells were incubated overnight. The intracellular red fluorescence intensity was then analyzed by FACS to characterize the internalization level of THIOMAB.
(§4) To verify internalization of anti-PD-L1 THIOMAB on DC cells, the inventors acquired two kinds of DC cells, which were Cd274 knockout DC 2.4 cells and wild-type DC 2.4 cells, from the teacher named Tang Haidong of the School of Pharmaceutical Sciences, Tsinghua University. The Cd274 gene was a PD-L1 encoding gene, and the knocked-out DC 2.4 could not express PD-L1 protein, so the first kind of cells was PD-L1 negative DC cells; while wild-type DC 2.4 could express PD-L1, so the second kind of cells was PD-L1 positive DC cells (as shown in FIG. 12). […]
(§5) In preliminary experiments, the inventors added 10% heat-inactivated fetal bovine serum (FBS) as a blocking agent to a culture medium of DC 2.4 cells according to a conventional procedure, and detected the red fluorescence signals in the cells by FACS after incubation for 8 h, and the results are shown in FIG. 13. […]

[4] = system: PD-L1 positive wild-type DC 2.4 cells; assay: as above; assay type: cell-based, mouse; settings: wild-type DC 2.4, 10% FBS, incubation 8 h, pHrodo red labeled antibody
Protocol: as §3, §4, §5

[5] = system: B16 melanoma; assay: Anti-tumor activity in B16 melanoma mouse model; assay type: in vivo; settings: B16 mice, i.p.; antibody drugs 150 μg, D18 25 μg per mouse; dosing to day 21
Excerpt: A. Treatment with ADC HE-S2, single administration of anti-PD-L1 antibody, D18, or anti-PD-L1 THIOMAB, and anti-PD-L1 antibody/D18 combined administration for inhibitory activity against mouse MC38 tumor growth. B. Whole animal survival study. The ordinate of the curve represents the percentage of tumor-bearing mice that remained alive after different days, and the abscissa thereof represents the number of experimental days. C. Treatment with ADC HE-S2, single administration of anti-PD-L1 antibody, D18, or anti-PD-L1 THIOMAB, and anti-PD-L1 antibody/D18 combined administration for inhibitory activity against mouse MC38 tumor growth. Student's t test was used to compare significant differences between the groups, and p<0.001 is represented by ***.
B16 melanoma is a tumor with low PD-L1 level and certain drug resistance to PD-1/PD-L1 blocking treatment. As a result, as expected by the inventors, the inhibitory effect of each drug on B16 melanoma was reduced relative to the MC38 tumor.
Dosage: Antibody drugs, administered 150 μg per mouse for each time, and D18, administered 25 μg per mouse for each time. - means no administration on the day. * Only mice with MC38 tumor model were allowed to be administered until the 24th day, and mice with B16 tumor model were no longer administered after the 21st day.

Question: “anti-PD-L1 THIOMAB: mutant avelumab, light chain V205C (SEQ ID NO: 9), heavy chain SEQ ID NO: 4; pHrodo red labeled in internalization tests” was tested. Which “total red object integrated intensity” value [1] did it give?
Answer: 283613.60

Question: And the “total red object integrated intensity” value [2]?
Answer: 13701.63

Question: And the “proportion of red fluorescence positive cells” value [3]?
Answer: 52.9%

Question: And the “proportion of red fluorescence positive cells” value [4]?
Answer: 53.6%

Question: And the “inhibitory effect on B16 melanoma” value [5]?
Answer: almost comparative to that of the IgG isotype antibody
